# In US9975983B2, “Bio-reducible self-assembled liquid crystalline block copolymer for drug delivery” (UNIVERSITY OF CONNECTICUT, priority 2014, dated 2018):
# Assays:
# A549 cells [1] = assay: Intracellular uptake and release by CLSM in A549 cells; assay type: cell-based, human; conditions: 10 μg/mL DOX equivalents
# Procedure: (§1) A549 (cancer cells) and NIH3T3 (normal cells) cells were seeded at a density of 1.0×10^5 cells/well in an 8-well chamber of a Lab-Tek II chamber slide and preincubated for 24 h at 37° C. and 5% CO2. Serum-free DMEM containing free DOX and DOX-NPs at equivalent doses (10 μg/mL) was added to each well, followed by incubation for 30 min, 2 h and 4 h at 37° C. The cells were then rinsed with PBS, and fixed with 4% formaldehyde solution for 10 min. Cover glasses were then placed on glass slides. The cellular uptake and release behavior of DOX-encapsulated SS or thioester NPs were imaged by confocal laser scanning microscopy (CLSM) (Leica, England) at an excitation wavelength of 488 nm for DOX. Since DOX itself is fluorescent, it was used directly to investigate cellular uptake without additional fluorescent labeling in of the nanoparticles.
# NIH3T3 cells = assay: Intracellular uptake and release by CLSM in NIH3T3 cells; assay type: cell-based, Mouse; conditions: 10 μg/mL DOX equivalents, 30 min to 4 h
# Procedure: as §1
# A549 cells [2] = assay: MTT cytotoxicity in A549 cells; assay type: cell-based, human; conditions: 24 h
# Procedure: (§2) A549 and NIH3T3 cells (7500 cells/well) were seeded on 96-well plates and cultured in 200 μL of DMEM supplemented with 10% FBS, 1% antibiotics, and 1% L-glutamine for 24 h at 37° C. and 5% CO2. After incubation, various concentrations of DOX-encapsulated SS or thioester NPs and free DOX (1-50 μg/mL of DOX equivalents) dissolved in DMEM without supplements were added. After 24 h of incubation, cytotoxicity was determined using 3-[4,5-dimethylthiazol-2-yl]-[…] bromide dye (MTT dye, final concentration of 0.5 mg/mL) uptake at 540 nm on a microplate reader (Tecan group Ltd., Mannedorf, Switzerland).
# HeLa cells [3] = assay: Cellular uptake by CLSM in HeLa cells; assay type: cell-based
# Procedure: To observe the cellular uptake, HeLa cells (cancer cells) were seeded at a density of 1.0×10^5 cells/well in an 8-well chamber of a Lab-Tek II chamber slide and preincubated for 24 h at 37° C. and 5% CO2. […] The cells were then rinsed with PBS, stained with 10 μM Draq5 and fixed with 4% formaldehyde solution for 10 min. Cover glasses were then placed on glass slides. The cellular uptake of free DOX and DOX-NPs was imaged by CLSM at an excitation wavelength of 488 nm for DOX. To quantify cellular uptake, HeLa cells (5×10^5 cells/well) in 0.5 mL were grown on a 24-well plate at 37° C. in a humidified atmosphere of 5% CO2 for 24 h. Serum-free DMEM containing free DOX and DOX-NPs at equivalent doses (25 μg/mL) was added to the cells which were subsequently incubated for 2 h. The cells were then washed three times with PBS, harvested by trypsinization and transferred into Fluorescence Activated Cell Sorter (FACS) tubes. All samples were analyzed by flow cytometry (FACSCalibur, BD Biosciences, San Jose, Calif.) to determine cellular internalization. Fluorescence measurements of intracellular DOX were performed in the FL2 channel.
# HeLa cells [4] = assay: MTT cytotoxicity in HeLa cells; assay type: cell-based; conditions: equal DOX concentrations
# Procedure: as §2, with “HeLa cells” for “A549 and NIH3T3 cells”, “of the blank nanoparticles (0.2-1 mg/mL), DOX-NPs,” for “of DOX-encapsulated SS or thioester NPs”, “of incubation with free DOX and DOX-NPs, and 48 h with blank nanoparticles,” for “of incubation,”, “Ltd., Männedorf,” for “Ltd., Mannedorf,”
# [5] = in vivo; cited from earlier work
SMILES,Location of red DOX fluorescent signal (A549 cells [1]; 30 min),Location of red DOX fluorescent signal (A549 cells [1]; 2 h and 4 h),Location of red DOX fluorescent signal (NIH3T3 cells),"Decrease of cell viability (A549 cells [2]; 1-50 μg/mL DOX, dose-dependent)",Cytotoxicity relative to DOX-encapsulated thioester-NPs (A549 cells [2]; all DOX concentrations),Red DOX fluorescent signal in cells (HeLa cells [3]; 2 h),Cell morphology (HeLa cells [3]; 4 h),Red DOX fluorescent signal in cells (HeLa cells [3]; 4 h),Relative cytotoxicity (HeLa cells [4]),Biodistribution of free dye [5]
"COc1cccc2c1C(=O)c1c(O)c3c(c(O)c1C2=O)C[C@@](O)(C(=O)CO)C[C@@H]3O[C@H]1C[C@H](N)[C@H](O)[C@H](C)O1 [free DOX, doxorubicin]",entered the cellular nuclei,strong red signal in the cellular nuclei,red signal was observed in the cellular nuclei,5-82%,significantly higher,red fluorescent signal was observed,cell shrinkage and blebbing,significant increases in the red signal,significantly higher cytotoxicity than DOX-encapsulated NPs,–
"CCCCCCCCCCCCCCCCCCN1C(=CC=CC=CC=CC2=[N+](CCCCCCCCCCCCCCCCCC)c3ccccc3C2(C)C)C(C)(C)c2ccccc21.[I-] [free hydrophobic DiR, 1,1′-Dioctadecyl-3,3,3′,3′-tetramethylindotricarbocyanine iodide]",–,–,–,–,–,–,–,–,–,accumulated in liver from 1 h to 24 h with negligible tumor accumulation
